{"source": "patent US20090156466A1", "about": "“Characterization of a MEKK binding site and uses thereof” (priority 2007, published 2009)", "key": {"MEKK3": {"biological_target": "T1, MEKK3 (Homo sapiens, UniProt Q99759)", "T1 construct": "expressed in transfected cells; host or cells: HEK 293", "T1 sequence (Q99759 1-626)": "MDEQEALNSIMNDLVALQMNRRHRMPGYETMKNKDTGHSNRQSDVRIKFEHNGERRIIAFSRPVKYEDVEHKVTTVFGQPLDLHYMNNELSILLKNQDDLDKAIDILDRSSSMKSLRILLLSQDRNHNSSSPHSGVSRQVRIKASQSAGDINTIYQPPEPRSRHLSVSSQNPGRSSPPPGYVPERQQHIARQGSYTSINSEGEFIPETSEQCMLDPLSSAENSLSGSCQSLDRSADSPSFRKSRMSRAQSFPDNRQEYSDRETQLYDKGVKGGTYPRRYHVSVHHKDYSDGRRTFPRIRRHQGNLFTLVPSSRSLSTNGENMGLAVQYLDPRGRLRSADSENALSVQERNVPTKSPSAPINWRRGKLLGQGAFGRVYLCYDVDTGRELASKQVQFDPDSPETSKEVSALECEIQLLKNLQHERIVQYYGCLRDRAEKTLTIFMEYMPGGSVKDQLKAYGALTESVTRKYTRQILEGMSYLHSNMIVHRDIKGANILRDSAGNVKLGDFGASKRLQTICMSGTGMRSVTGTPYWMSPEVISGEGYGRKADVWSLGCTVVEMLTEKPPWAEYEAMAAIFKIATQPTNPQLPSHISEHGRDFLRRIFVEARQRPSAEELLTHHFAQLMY", "assay": "MEKK3 mobility band shift on high-ratio acrylamide:bis-acrylamide SDS-PAGE of lysates from treated cells", "format": "cell-based", "conditions": "MEKK3 expressed in treated HEK293 cells; data not shown"}, "MEKK3-14-3-3 interaction": {"biological_target": "T2, MEKK3-14-3-3 interaction (Homo sapiens, UniProt Q99759)", "T2 construct": "expressed in transfected cells; host or cells: HEK 293", "T2 sequence (Q99759 1-626)": "T1 sequence (Q99759 1-626)", "assay": "Co-immunoprecipitation of 14-3-3 with FLAG-MEKK3 from HEK 293 cells treated with kinase inhibitor", "format": "cell-based", "conditions": "HEK 293 cells with wt MEKK3; 1 μM, 5 μM or 10 μM for 20 min prior to solubilization", "description": "A, B. HEK 293 cells were transfected with wildtype (wt) MEKK3, K391M MEKK3, or S526A MEKK (shown in B) or empty vector. After 24 hours, cells were solubilized, and FLAG-MEKK3 was immunoprecipitated with anti-FLAG M2-conjugated agarose. Proteins were resolved by SDS-PAGE, and immunoblotted with anti-FLAG antibody or anti-14-3-3β antibody (which recognizes the family of 14-3-3 proteins). C. HEK 293 cells were transfected with wt MEKK3 for 24 hours, and then treated with staurosporine (1 μM, 5 μM, or 10 μM) for 20 min prior to solubilization. MEKK3 and 14-3-3 were detected as in A.\nHEK 293 cells were plated onto 35-mm-diameter dishes at 80% confluency, and transfected with 100 to 500 ng of cDNA using Lipofectamine-2000 (Gibco-BRL) following the manufacturer's protocol. Transfection medium was removed and replaced with complete DMEM overnight.\nCells were lysed in 50 mM Tris-HCl, pH 7.4, 1% Triton X-100, 25 mM NaF, 25 mM β-glycerophosphate, 5 mM EDTA, 0.05% SDS, 1.0 μg/ml microcystin LR, and protease inhibitors. […] FLAG was stained with anti-FLAG M2 mouse monoclonal (Sigma), and 14-3-3 isoforms were detected with anti-14-3-3β (H8; Santa Cruz Biotechnology).\nThe family of 14-3-3 proteins was detected by immunoblotting with a pan-specific 14-3-3 antibody raised against a common sequence present in all family members. […]"}}}
{"smiles": "N#CC(=C(/N)Sc1ccccc1N)/C(C#N)=C(\\N)Sc1ccccc1N", "note": "[U0126]", "values": [{"measurement": "MEKK3 band shift (mobility shift on SDS-PAGE)", "setting": "MEKK3", "value": "had no effect on mobility shift"}]}
{"smiles": "CN[C@@H]1C[C@H]2O[C@@](C)([C@@H]1OC)n1c3ccccc3c3c4c(c5c6ccccc6n2c5c31)C(=O)NC4", "note": "[staurosporine]", "values": [{"measurement": "MEKK3-14-3-3 interaction (14-3-3 co-immunoprecipitation)", "setting": "MEKK3-14-3-3 interaction", "value": "disrupted MEKK3-14-3-3 interaction"}, {"measurement": "MEKK3 band shift (mobility shift on SDS-PAGE)", "setting": "MEKK3", "value": "reduced the MEKK3 band shift"}]}
